{"source": "patent US20200157048A1", "about": "“(2E,4E)-5-PHENYL-PENTA-2,4-DIEN-1-ONE DERIVATIVE” (BIOWAY., INC, priority 2018, published 2020)", "target": "T1, SIRT1 (Homo sapiens, UniProt Q96EB6)", "T1 construct": "purchased Cayman (Ann Arbor, Mich., USA)", "T1 sequence (Q96EB6 1-747)": "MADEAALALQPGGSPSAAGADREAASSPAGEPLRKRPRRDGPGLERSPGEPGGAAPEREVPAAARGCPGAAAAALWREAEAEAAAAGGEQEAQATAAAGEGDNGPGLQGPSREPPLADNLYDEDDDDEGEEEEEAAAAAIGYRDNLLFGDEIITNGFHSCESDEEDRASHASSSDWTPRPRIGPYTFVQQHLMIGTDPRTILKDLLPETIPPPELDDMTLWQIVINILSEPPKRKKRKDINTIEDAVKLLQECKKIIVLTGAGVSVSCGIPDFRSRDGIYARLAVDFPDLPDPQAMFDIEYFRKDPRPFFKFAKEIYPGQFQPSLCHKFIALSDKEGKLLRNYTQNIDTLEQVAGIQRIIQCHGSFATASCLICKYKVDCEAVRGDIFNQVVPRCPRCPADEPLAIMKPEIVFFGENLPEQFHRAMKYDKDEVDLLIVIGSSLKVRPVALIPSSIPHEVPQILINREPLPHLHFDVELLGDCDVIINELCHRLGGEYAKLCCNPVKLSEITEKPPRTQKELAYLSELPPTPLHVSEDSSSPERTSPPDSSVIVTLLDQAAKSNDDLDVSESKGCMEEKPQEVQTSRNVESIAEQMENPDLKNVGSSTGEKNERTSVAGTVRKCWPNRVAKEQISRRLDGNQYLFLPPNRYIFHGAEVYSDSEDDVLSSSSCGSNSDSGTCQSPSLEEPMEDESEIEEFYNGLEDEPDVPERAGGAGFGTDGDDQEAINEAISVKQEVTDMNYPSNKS", "test": "SIRT1 direct fluorescent assay", "format": "biochemical", "details": "20 μM", "method": "All materials were provided from a Sirt1 direct fluorescent screening assay kit (Cayman, Ann Arbor, Mich., USA).\nSIRT1, p53 conjugated aminomethyl coumarin (AMC) protein, and 3 mM NAD^+ were added to a diluted analysis buffer (50 mM Tris-HCl, pH 8.0, 137 mM NaCl, 2.7 mM KCl, and 1 mM MgCl2).\n25 μL of the analysis buffer, 5 μL of diluted SIRT1, and 5 μL of a solvent were added to each of three 100% initial activity wells of a 96-well plate.\n30 μL of the analysis buffer and 5 μL of a solvent were added to each of three background wells of the 96-well plate.\n25 μL of the analysis buffer, 5 μL of diluted SIRT1, and 5 μL of a diluted test compound were added to each of three sample wells of the 96-well plate. The final DMSO concentration was less than 2%.\n15 μL of a 3 mM NAD^+-containing substrate solution was added to all wells to begin the reaction. The 96-well plate was covered with a plate cover, and then incubated in a shaker at room temperature (25 to 30° C.) for 45 minutes.\nA stop/developing solution was prepared. To prepare the final 5 mL solution, 200 μL of nicotinamide (NAM, Sigma-Aldrich) was added to a color developing powder weighing 30 mg, 4.8 mL of a diluted analysis buffer was added thereto, and the resulting mixture was stirred until the powder became a solution.\nThe plate cover was removed, and 50 μL of the stop/developing solution was added to each well.\nThe 96-well plate was covered with a plate cover, and incubated at room temperature (25 to 30° C.) for 30 minutes.\nThe plate cover was removed, and the plate was read using Cytation 5 at an excitation wavelength of 360 nm and an emission wavelength of 450 nm.\nThe mean fluorescence of each sample was measured.\nThe fluorescence of the background wells was subtracted from the fluorescence of the 100% initial activity wells and sample wells.\nTo determine the percent of each sample, each sample value was subtracted from the 100% initial activity value, and the resulting value was divided by the 100% initial activity value and then multiplied by 100 and added to 100, which was expressed as a percentage.", "data": [{"smiles": "CSc1ccc(/C=C/C=C/C(=O)N2CCCCC2)cc1", "note": "[YU2014, (2E,4E)-5-(4-(methylthio)phenyl)-1-(piperidine-1-yl)penta-2,4-dien-1-one]", "values": [{"measurement": "increase of SIRT1 activity (FIG. 18)", "result": "about 20%"}]}]}
